Numbers after ± are expanded uncertainties.
Tests used:
[1] = refractive index (Na D-line) (dimensionless); conditions: 298.15 K; 101.33 kPa; Liquid; Standard Abbe refractometry
[2] = 298.15 K; 101.33 kPa; Liquid; Pycnometric method

| Structure (SMILES) | refractive index [1] | mass density [2] |
| --- | --- | --- |
| CC(O)CO (centres undefined) [1,2-propanediol] | 1.43262 ± 0.012 | 1032.7 ± 0.4 kg/m3 |
| OCCO [1,2-ethanediol] | 1.43159 ± 0.012 |  |
| O [water] | 1.33299 ± 0.012 |  |
